Read-outs that look alike come from different tables or passages of the source.
Target: Recombinant human liver glucokinase (FLAG fusion protein) (Homo sapiens (Human), UniProt P35557)
Assay: glucokinase (GK) activation assay, Thio-NADH formation coupled to G6PDH, absorbance at 405 nm
Format: biochemical
Settings: 2.5 mM Glu; for EC50: 30° C.; for Emax: OD value of DMSO control regarded as 100%
From the text: The glucokinase activity can, for instance, be determined without directly measuring glucose-6-phosphate by measuring the amount of Thio-NADH generated during the production of phosphogluconolactone from glucose-6-phosphate by a reporter enzyme glucose-6-phosphate dehydrogenase.
To test the exemplified compounds, the following assay was employed. Recombinant human liver glucokinase was expressed as a FLAG fusion protein in E. coli, and purified on ANTIFLAG M2 AFFINITY GEL (Sigma). The assay was carried out at 30° C. in a 96-well plate. In the plate was distributed 69 μl each of assay buffer (25 mM Hepes Buffer: pH=7.2, 2 mM MgCl2, 1 mM ATP, 0.5 mM TNAD, 1 mM dithiothreitol), to which was added 1 μl of a DMSO solution of the compound or DMSO as control. Then, 20 μl of pre-ice-cooled enzyme mixture (FLAG-GK, 20 U/ml G6PDH) was distributed thereto, to which was added 10 μl of 25 mM glucose as substrate to initiate the reaction (final glucose concentration=2.5 mM). After starting the reaction, the absorbance at 405 nm was measured every 30 seconds for 10 minutes to evaluate the compound based on the initial increase for 5 minutes. FLAG-GK was added so that the increase of absorbance after 5 minutes fell between 0.05 to 0.1 in the presence of 1% DMSO.
The OD values of the respective compounds were measured in the respective concentrations, wherein the OD value of DMSO as control is regarded as 100%. From the OD values at the respective concentrations, Emax (%, 2.5 mM Glu) and EC50 (nM, 2.5 mM Glu) were calculated and used as indicators of the GK activation capability of the compounds. According to the above assay, the GK activation capability of the exemplified compounds of the present invention was determined. […] Where different enantiomers of the same compound were tested, two numbers are provided. Where 3 numbers are provided, for example, Ex. #30, data for the racemic form is also shown.

Chain of Recombinant human liver glucokinase (FLAG fusion protein) (P35557 other isoform, or with tags, fused parts or gaps): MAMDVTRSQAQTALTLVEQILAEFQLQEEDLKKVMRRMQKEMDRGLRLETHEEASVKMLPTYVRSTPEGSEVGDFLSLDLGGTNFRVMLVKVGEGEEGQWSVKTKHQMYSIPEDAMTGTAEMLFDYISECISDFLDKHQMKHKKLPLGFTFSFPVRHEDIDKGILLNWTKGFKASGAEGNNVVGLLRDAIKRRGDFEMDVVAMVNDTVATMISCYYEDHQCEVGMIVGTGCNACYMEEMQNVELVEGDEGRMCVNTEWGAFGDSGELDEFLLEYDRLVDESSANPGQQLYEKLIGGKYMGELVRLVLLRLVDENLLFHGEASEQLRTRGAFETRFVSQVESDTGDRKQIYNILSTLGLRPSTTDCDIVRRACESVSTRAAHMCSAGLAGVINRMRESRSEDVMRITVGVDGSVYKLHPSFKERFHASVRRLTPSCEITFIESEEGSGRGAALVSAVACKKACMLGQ

**Q.** `COC(=O)CCc1cnc(-c2cc3cc(Oc4ccc(S(C)(=O)=O)cc4)c(C4CCC(=O)N4C)cc3[nH]2)s1` (stereo not drawn) [Example 35, methyl 3-(2-(6-(1-methyl-5-oxopyrrolidin-2-yl)-5-(4-(methylsulfonyl)phenoxy)-1H-indol-2-yl)thiazol-5-yl)propanoate] was tested. Which EC50 did it give?
**A.** The EC50 was 8.9 nM.

**Q.** And the Emax (read-out: Emax)?
**A.** Its Emax is 656%.

**Q.** What does the source list for `CCS(=O)(=O)c1ccc(Oc2cc3cc(-c4ccc(C(F)(F)F)cn4)[nH]c3cc2C2CCC(=O)N2CC(=O)O)cc1` (stereo not drawn) [Example 3, (2-{5-[4-(ETHYLSULFONYL)PHENOXY]-2-[5-(TRIFLUOROMETHYL)PYRIDIN-2-YL]-1H-INDOL-6-YL}-5-OXOPYRROLIDIN-1-YL)ACETIC ACID]?
**A.** EC50: 797 nM; Emax (read-out: Emax): 628%

**Q.** What does the source list for `COC(=O)CCc1ccc(Oc2cc3cc(-c4ccc(C(F)(F)F)cn4)[nH]c3cc2C2CCC(=O)N2C)cc1` (stereo not drawn) [Example 4, METHYL 3-[4-({6-(1-METHYL-5-OXOPYRROLIDIN-2-YL)-2-[5-(TRIFLUORO-METHYL)PYRIDIN-2-YL]-1H-INDOL-5-YL}OXY)PHENYL]PROPIONATE]?
**A.** Emax: 453.8%; Emax (read-out: Emax): 455%

**Q.** With `COC(=O)Cc1ccc(Oc2cc3cc(-c4ccccn4)[nH]c3cc2C2CCC(=O)N2C)cc1` (stereo not drawn) [Example 25, methyl 2-(4-((6-(1-methyl-5-oxopyrrolidin-2-yl)-2-(pyridin-2-yl)-1H-indol-5-yl)oxy)phenyl)acetate] as the molecule, how does the EC50 read?
**A.** Its EC50 is 21 nM.

**Q.** What about the Emax (read-out: Emax) of the same molecule?
**A.** The Emax was 649%.

**Q.** For `COC(=O)Cc1csc(-c2cc3cc(Oc4ccc(S(C)(=O)=O)cc4)c(C4CCC(=O)N4C)cc3[nH]2)n1` (stereo not drawn) [Example 32, methyl 2-(2-(6-(1-methyl-5-oxopyrrolidin-2-yl)-5-(4-(methylsulfonyl)phenoxy)-1H-indol-2-yl)thiazol-4-yl)acetate], which EC50 is on record?
**A.** Its EC50 is 65.1 nM.

**Q.** What about the Emax (read-out: Emax) of the same molecule?
**A.** The Emax was 566%.

**Q.** For `COC(=O)CCc1ccc(Oc2cc3cc(-c4cnccn4)[nH]c3cc2C2CCC(=O)N2C)cc1` (stereo not drawn) [Example 23, methyl 3-(4-((6-(1-methyl-5-oxopyrrolidin-2-yl)-2-(pyrazin-2-yl)-1H-indol-5-yl)oxy)phenyl)propanoate], which EC50 is on record?
**A.** Its EC50 is 2.1 nM.

**Q.** What about the Emax (read-out: Emax) of the same molecule?
**A.** The Emax was 574%.

Source: patent US9453038B2, “Glucokinase activator compounds, compositions containing such compounds, and methods of treatment” (Merck Sharp & Dohme Corp., priority 2012, dated 2016)
